According to patent US20220187274A1, “NEMATODE TRAP PLATE AND USE THEREFOR” (priority 2019, published 2022):

How the values were obtained:
[1] = test system: C. elegans; assay: Nematode trap plate (PASS) olfaction test, chemotaxis index to a volatile substance; assay type: in vivo, Caenorhabditis elegans
Procedure: (Method for Evaluating Test Result) On the basis of the number of nematodes caught in the fall-in cavity which number has been obtained in the above-described manner, a response of the nematodes is evaluated. In the olfaction test or gustation test for evaluating a response of the nematodes to a chemical substance or the like, it is possible to evaluate the response on the basis of, e.g., a chemotaxis index (it may sometimes be abbreviated as “C.I.”). The chemotaxis index, which is used to evaluate the taxis of the test subject to the chemical substance or the like, is defined by in the following manner. That is, the number of nematodes caught in a control fall-in cavity is subtracted from the number of nematodes caught in a fall-in cavity for the test subject so that a difference is yielded, and the difference is divided by the total number of nematodes caught in all the fall-in cavities. In a case where there exist two or more fall-in cavities for the test subject, the total number of nematodes caught in these fall-in cavities is considered as “the number of nematodes caught in the fall-in cavity for the test subject”. Similarly, in a case where there exist two or more control fall-in cavities, the total number of nematodes caught in these control fall-in cavities is considered as “the number of nematodes caught in the control fall-in cavity”. Specifically, the chemotaxis index (C.I.) can be obtained by the following formula, where Ni is the total number of nematodes caught in the fall-in cavity for the test subject and N2 is the total number of nematodes caught in the control fall-in cavity.
Chemotaxis index (C.I.)=(N1−N2)/(N1+N2).
In the Examples shown below, tests were conducted by using C. elegans as the nematodes, unless otherwise stated. In each of the Examples, a commercially-available circular plastic dish was used as the container of the nematode trap plate. The size of the plastic dish, the capacity (volume) of a solid medium mainly made of an agar, and the number of fall-in cavities to be formed were set as appropriate in consideration of the purpose of the test, the volume of a sample obtained, and the like. In each case, the fall-in cavities were formed in the shape of a cylinder having a diameter of approximately 5 mm. […] The following description will be made by using the names of the plates shown in Table 1 (plate A1, plate A2, plate B1, plate B2, plate B3, plate B4, and plate B5).
First, a plate A1 was produced that included (a) two fall-in cavities 2a formed in a left part of a solid medium so as to be arranged side by side along the outer periphery of the solid medium and (b) two fall-in cavities 2b formed in control positions in a right part of the solid medium in a similar manner to the fall-in cavities 2a. […]
Then, the response was evaluated. […]

[2] = test system: C. elegans; assay: Conventional chemotaxis evaluation method on assay plate with sodium azide (Comparative Example 1); assay type: in vivo, Caenorhabditis elegans; settings: Comparative Example 1, conventional method; undiluted solution and test solution with a large dilution factor; three tests
Procedure: As a comparative example, evaluation of a response of nematodes was conducted in accordance with a conventional chemotaxis evaluation method (e.g., Non-Patent Literature 1). […] Similarly to the test in Example 1, an undiluted solution of diacetyl and diluted solutions prepared by diluting diacetyl at five different concentrations were used as test solutions. One drop of the test solution was dripped on each of two positions (test solution spots) on a left half of a circle with a radius of 3 cm about the center of the assay plate. Meanwhile, the buffer solution serving as the control was dripped on each of positions (control spots) that were on a right half of the circle with a radius of 3 cm about the center of the assay plate and that were arranged point symmetrically. […] Based on the captured image of the entire assay plate, an example of which is shown in FIG. 11, the number of nematodes fixed under anesthesia was counted in each of test solution areas extending concentrically from the two test solution spots on the left part and control areas extending concentrically from the two control spots on the right part. […] The response of the nematodes was evaluated with use of the chemotaxis index (C.I.), which was used also in Example 1, assuming that the number of nematodes in the test solution areas was N1 and the number of nematodes in the control areas was N2. […]

[3] = test system: hetero group M of free-living soil nematodes (collected at Ogasawara village, Tokyo, Japan); assay: Nematode trap plate olfaction test with soil nematodes other than C. elegans, group M; assay type: in vivo; settings: Example 15, plate A1, 1 mM diluted solution, negative = avoidance
Procedure: (§1) Example 15 was conducted for the purpose of studying applicability of the plate of the present invention to evaluation of a response of nematodes other than C. elegans. Specifically, the test was conducted to examine a response of a hetero group M of free-living soil nematodes (collected at Ogasawara village, Tokyo, Japan) and a hetero group H of free-living soil nematodes (collected at Takayama city, Gifu, Japan) with respect to a volatile substance. A plate A1 identical to that produced in Example 1 was produced. Left fall-in cavities 2a were filled with a test solution, whereas right fall-in cavities 2b were filled with a buffer solution as a control. The test solution used in Example 15 was a diluted solution (1 mM) of vanillin, which is a kind of volatile substance. […] Then, the plate was left at least for an hour under a light-shielded environment. […] The chemotaxis index (C.I.) was obtained in a similar manner to Example 1, and the response of the nematodes was evaluated. […] Note that the tests involving use of the nematode group M and the nematode group H were conducted independently.

[4] = test system: hetero group H of free-living soil nematodes (collected at Takayama city, Gifu, Japan); assay: Nematode trap plate olfaction test with soil nematodes other than C. elegans, group H; assay type: in vivo; settings: Example 15, plate A1, 1 mM diluted solution, positive = attraction
Procedure: as §1

O=Cc1ccccc1 [benzaldehyde]
Chemotaxis index (C.I.) ([1]; Example 3, plate B1, each of three dilutions from 10000-fold to 100000-fold of 9.8 M undiluted solution, mean of four tests, maximum 1.0): not less than 0.9

CC(=O)C(C)=O [diacetyl]
Chemotaxis index (C.I.) ([1]; Example 1, plate A1, four other dilution concentrations among six, all three tests, positive = attraction): positive values | Chemotaxis index (C.I.) ([1]; Example 1, plate A1, two highest concentrations among six (undiluted 11.5 M to 100000-fold dilution), all three tests, negative = escaping): negative values | Chemotaxis index (C.I.) ([1]; Example 2, plate A2 (solid medium volume twice that of A1), six concentrations, undiluted to 100000-fold, three tests): the same results as in Example 1 | Chemotaxis index (C.I.) [2]: a positive value was obtained in one case, and a negative value was obtained in another case

COc1cc(C=O)ccc1O [vanillin]
Chemotaxis index (C.I.) [3]: negative C.I. value | Chemotaxis index (C.I.) [4]: positive C.I. value
